According to patent US20030221207A1, “Cardiac-specific 11beta hydroxysteroid dehydrogenase type 2 transgenic mice” (Pharmacia Corporation, Global Patent Department, priority 2002, published 2003):

System: 11βhsd2 cardiac-specific transgenic mice
Test: Eplerenone treatment of 11βhsd2 cardiac-specific transgenic mice, echocardiography
Assay type: in vivo, mouse
Settings: male transgenic mice, chow containing eplerenone approx. 200 mg/kg/day from 4 weeks of age
Experimental: Starting at 4 weeks of age male transgenic mice were supplied with either chow containing eplerenone (approximate dose of 200 mg/kg/day) to eat or normal chow.
Echocardiograms were acquired using a Sonos 5500 echocardiographic system equipped with a 15-MHz linear-array transducer (Agilent, Andover, Mass.). Images were obtained from mice lightly anesthetized with 1-2% isoflurane (AErrane; Baxter, Inc., Deerfield, Ill.) lying in the left lateral decubitus position. Care was taken to maintain adequate contact while avoiding excessive pressure on the chest wall. Two-dimensional parasternal long and short-axis images of the left ventricle were obtained. Two-dimensional targeted M-mode tracings were recorded from the parasternal short-axis view at the level of the papillary muscles at a sweep speed of 150 mm/s. All echocardiograms were recorded digitally on a rewritable magneto-optical disk. Measurements and calculations used are as follows: Left Ventricular End diastolic (EDV) and systolic (ESV) volumes were calculated via the method of discs from direct measurement systolic (LVAs) and diastolic (LVAd) areas. Ejection Fraction (EF) was calculated from systolic and diastolic volumes with the following formula: EF=(EDV−ESV)/EDV×100. […] Heart rate (HR) was calculated by measuring the R-R interval in M-mode and using the formula: HR=60(sec/min)/R-R interval(sec/beat). […]

COC(=O)[C@@H]1CC2=CC(=O)CC[C@]2(C)[C@@]23O[C@@H]2C[C@@]2(C)[C@@H](CC[C@@]24CCC(=O)O4)[C@H]13 [eplerenone]
development of left ventricular dysfunction and heart failure (2.5 months of treatment): significantly attenuated | myocardial function (after 2.5 months of treatment, versus normal chow): significantly improved
